Test results as given in patent US20080103198A1, “METHODS FOR TREATMENT OF COCHLEAR AND VESTIBULAR DISORDERS” (priority 2006, published 2008).
Structures can show the parent of a compound that is named as a salt.

How the values were obtained:
[1] = system: transient cerebral ischemia (MCAO); assay: Transient cerebral ischemia middle cerebral artery occlusion (MCAO) rat model; format: in vivo; settings: MK 801 3 mg/kg i.p.; N=12
Procedure: The enantiomer of Formula 7 was investigated in the transient cerebral ischemia middle cerebral artery occlusion (MCAO) rat model (as described in Nagasawa H. and Kogure K., Stroke, 1989, 20, 1037; and, Zea Longa E., Weinstein P. R., Carlson S, and Cummins R., Stroke, 1989, 20, 84) using male Wistar rats at 10 and 100 mg/kg (i.v.). MK 801 (Dizocilpine maleate; CAS Registry number 77086-22-7, a commercially available neuroprotectant compound) was used as a positive control (3 mg/kg, i.p.).
Rats (n=12) were randomly allocated to one of four experimental groups and were anesthetized. Blood flow from the internal carotid artery, anterior cerebral artery and posterior cerebral artery into the middle cerebral artery was blocked by this procedure. One hour after blockage, animals were treated over a 1 hour period with vehicle (administered i.v. over the one hour period), control (administered as a single i.p. dose at the start of the one hour period) and two doses of the enantiomer of Formula 7 (administered i.v. over the one hour period). Two hours after blockage, reperfusion was performed.
The animals were sacrificed and […] coronal sections of each brain were prepared. One in every forty sections (i.e. every […]) from the front to the occipital cortex was used to quantify the extent of the cerebral lesion. Slides were prepared using sections stained (according to the Nissl procedure) with cresyl violet and were examined under a light microscope.
Regional ischemic surface areas in the coronal sections of individual rats were determined according to the presence of cells with morphological changes. The areas of neuronal injury or infarction were measured and then added. The cortex and striatum volume were calculated for each animal (total ischemic surface area×0.8 mm (thickness)).
The mean volumes (.+−.S.E.M.) for each animal randomly assigned to the four experimental groups were compared using one-way ANOVA (one way ANOVA is a statistical method which compares 3 or more unmatched groups) followed by Dunnett's t-test (both methods incorporated in Statview 512+software, BarinPower, Calabasas, Calif., USA).

PC12 cells = assay: PC12 cell serum withdrawal model (MTS assay); format: cell-based; settings: control cells = 100%
Excerpt: Serum withdrawal is a cytotoxic environmental challenge that results in cell death in cultured cell lines as well as in primary cells of various tissue origins, including nerve cells. In particular, pheochromocytoma (PC) 12 cells have been widely employed as an in vitro neuronal cell model for a wide variety of neurodegenerative and cell death related disorders (Muriel, et al, Mitochondrial free calcium levels (Rhod-2 fluorescence) and ultrastructural alterations in neuronally differentiated PC12 cells during ceramide-dependent cell death, J. Comp. Neurol., 2000, 426(2), 297-315; Dermitzaki, et al, Opioids transiently prevent activation of apoptotic mechanisms following short periods of serum withdrawal, J. Neurochem., 2000, 74(3), 960-969; Carlile, et al, Reduced apoptosis after nerve growth factor and serum withdrawal: conversion of tetrameric glyceraldehyde-3-phosphate dehydrogenase to a dimer, Mol. Pharmacol., 2000, 57(1), 2-12).
PC12 cells were cultured in sterile media (RPMI 1640) supplemented with 10% heat-inactivated horse serum and 5% fetal bovine serum (FBS). The culture medium also contained Penicillin-Streptomycin-Neomycin antibiotic (50µg, 50µg, 100µg, respectively). Medium was exchanged every other day and the cells were passed in log phase near confluence.
The control cells were cultured in regular media without any treatment. An enantiomer of Formula 7 or Formula 8 (10µM) was mixed well in the medium and then applied to the cells. For the 2 day assay, an enantiomer of Formula 7 or Formula 8 (10µM) was only applied to the cells once at the time of serum withdrawal. For the 7 day assay, an enantiomer of Formula 7 or Formula 8 (10. mu.M) was applied to the cells at the time of serum withdrawal and every 48 hr thereafter when cells were changed with fresh new serum-free medium. In the serum withdrawal group, the cells were cultured in serum-free medium with no additional enantiomer of Formula 7 or Formula 8. Cell survival was determined by the 3-(4,5-dimethylthiazol-2-yl)-5-(3-carboxy-methoxyphenyl)-2-(4-sulfophenyl)-2H-tetrazolium inner salt (MTS) assay at 2 or 7 days after serum withdrawal.
At the end of the experiment, cells were washed with fresh medium and incubated with MTS solution in a humidified 37° C. with 5% CO2 incubator for 1.5 hr. After the incubation period, the cells were immediately analyzed using a Softmax program (Molecular Devices). […] The assay is based on the cellular conversion of the tetrazolium salt, MTS, into a formazan that is soluble in tissue culture medium and measured directly at 490 nm in 96-well assay plates. The absorbance is directly proportional to the number of living cells in culture. The arbitrary absorbance reading in control cells is expressed as 100% survival rate.

| Compound | Mean Infarct Volume ± S.E.M., Cortex Volume [1] | Mean Infarct Volume ± S.E.M., Striatum [1] | Mean Infarct Volume ± S.E.M., Total [1] | 2 Day Survival Rate (PC12 cells; 10 µM applied once at serum withdrawal) | 7 Day Survival Rate (PC12 cells; 10 µM at serum withdrawal and every 48 hr) |
| --- | --- | --- | --- | --- | --- |
| C[C@]12N[C@H](Cc3ccccc31)c1ccccc12 [MK 801, Dizocilpine maleate, reference compound] | 95.8 ± 24.5^1 mm^3 | 56.1 ± 5.3^2 mm^3 | 151.9 ± 28.7^1 mm^3 |  |  |
| NC(=O)OC[C@H](OC(N)=O)c1ccccc1Cl [Formula 8] |  |  |  | 66.4 ± 5.4^1% | 85.2 ± 0.6^2% |
